Format in all cases: physicochemical
Data set [1] can be described thus: Hygroscopicity study (DVS). To be noted: for Water uptake at 80% RH: 25° C.; for Hygroscopicity: class per Chinese Pharmacopoeia 2010. As to the method: The dynamic vapor sorption diagrams of the present disclosure were collected on Intrinsic-type and Intrinsic Plus-type dynamic vapor sorption instruments of SMS company. The process parameters of the dynamic vapor sorption test of the present disclosure were as follows: • Temperature: 25° C. • Protection gas and its flow rate: N2, 200 mL/minute • dm/dt: 0.002%/minute • Minimum dm/dt equilibration time: 10 minutes • Maximum Equilibration Time: 180 minutes • Relative humidity range: 0% RH-95% RH-0% RH • Relative humidity gradient: 10% (0% RH-90% RH-0% RH), 5% (90% RH-95% RH and 95% RH-90% RH).
Weigh approximately 10 mg of Form Z of the present disclosure and Form B in the prior art for DVS test, and then collect the obtained solid for XRPD analysis. The results were summarized in Table 19, DVS plot of Form B was shown in FIG. 29, XRPD overlay of Form B was shown in FIG. 30, DVS plot of Form Z was shown in FIG. 31, and XRPD overlay of Form Z was shown in FIG. 32.
Description and definition of hygroscopicity (see appendix XIX J, guidance for hygroscopicity evaluation of Pharmacopoeia of the People's Republic of China 2010) • Deliquescent: sufficient water is absorbed to form a liquid, • Very hygroscopic: increase in mass is equal to or greater than 15 percent, • Hygroscopic: increase in mass is less than 15 percent and equal to or greater than 2 percent, • Slightly hygroscopic: increase in mass is less than 2 percent and equal to or greater than 0.2 percent. • Non-hygroscopic: increase in mass is less than 0.2 percent.

The nature of data set [2]: Solubility of crystalline forms in fasted-state simulated intestinal fluid (FaSSIF). The text has this: (§1) The UPLC data of the present disclosure were collected on Waters H Class, with photo-diode array detector. The UPLC parameters for purity and solubility test of the present disclosure were as follows: • 1. Column: Waters Xbridge C18, 150×4.6 mm, 5 μm • 2. Mobile phase: A: 0.05% trifluoroacetic acid in water; B: 0.05% trifluoroacetic acid in acetonitrile
Suspend Forms D and Z of the present disclosure and Form B in the prior art in fasted-state simulated intestinal fluid (FaSSIF) to form suspensions, respectively. After equilibrium for 1 hour, 2 hours and 4 hours, filter the suspensions to form saturated solutions. Determine the concentration of API in corresponding saturated solution by HPLC.

Data set [3] is described as follows: Particle size distribution study (laser particle size analyzer). The settings on record: for D10 / D50 / D90 / MV: wet method, Isopar G (0.2% lecithin), sonication 30 s. The procedure:
The particle size distribution results of the present disclosure were collected on S3500-type laser particle size analyzer of the Microtrac company. The Microtrac S3500 was equipped with an SDC (Sample Delivery Controller) sampling system. The wet method was used in this test, using Isopar G (containing 0.2% lecithin) as the test dispersion medium. The process parameters of the laser particle size analyzer were as follows.
Approximately 10-30 mg of Form D of the present disclosure and Form B in the prior art were added into 5 mL Isopar G (0.2% lecithin) to form a suspension, respectively. The suspension was mixed well and then loaded into SDC loading system. Adjust the shading intensity to an appropriate range, and then started to collect data after sonication for 30 s. The results were summarized in Table 20, and the particle size distribution diagrams of Form D and Form B were shown in FIGS. 35 to 36, respectively.

Data set [4] can be described thus: Solubility of crystalline forms in simulated gastric fluid (SGF).
From the text: as §1
Suspend Forms D, AL, and Z of the present disclosure and Form B in the prior art in simulated gastric fluid (SGF) to form suspensions, respectively. After equilibrium for 1 hour, 2 hours and 4 hours, filter the suspensions to form saturated solutions. Determine the concentration of API in corresponding saturated solution by HPLC.

The nature of data set [5]: Crystal habit study (PLM). The settings on record: for Crystal habit (PLM): dispersed in vacuum pump oil; for Powder flow property: inferred from PLM crystal habit. As to the method:
The polarized light microscope photos of the present disclosure were taken at room temperature with a Zeiss microscope Axio Scope.A1 equipped with an Axiocam 305 color camera and 5×, 10×, 20× and 50× objective lenses.
Weigh about 10 mg of Forms Z and AL of the present disclosure onto a glass slide, respectively. Disperse each solid with several vacuum pump oil, and then cover with a cover glass. Observe the sample using PLM.

These results are taken from patent publication US20230416207A1, “CRYSTALLINE FORMS OF QUINAZOLINONE COMPOUND AND PROCESS FOR PREPARING THE SAME” (priority 2020, published 2023).

In brackets after ≈: the same amount, converted by molar mass.

Usually solubility stands for how much of the substance goes into solution per volume. On to `CC(C)c1nc2cc(O)ccc2c(=O)n1-c1ccc(C#N)cc1` [Form B, 4-(7-hydroxy-4-oxo-2-propan-2-ylquinazolin-3-yl) benzonitrile, reference compound], for which, in data set [1], the “Water uptake at 80% RH” value is on record as 0.2485; the Hygroscopicity result was “Slightly hygroscopic (increase in mass is less than 2 percent and equal to or greater than 0.2 percent)”. The “Solubility in FaSSIF” value in data set [2] (equilibrium 1 hr) was 33.3 µg/mL (≈ 109 µM). Besides, in data set [2] (equilibrium 2 hr), the “Solubility in FaSSIF” value was 34.8 µg/mL (≈ 114 µM). For the same compound, in data set [2] (equilibrium 4 hr), the “Solubility in FaSSIF” value was 35.9 µg/mL (≈ 118 µM). In data set [3], this compound returned a D10 of 62.3 μm, a D50 of 1085.0 μm, a D90 of 1331.0 μm and an MV of 795.2 μm. The “Solubility in SGF” value in data set [4] (equilibrium 1 hr) is 77.5 µg/mL (≈ 254 µM). Further, in data set [4] (simulated gastric fluid (SGF), simulated gastric fluid, thermodynamic from solid, equilibrium 2 hr), the solubility at 2 h was 75.2 µg/mL (≈ 246 µM). Besides, the solubility at 4 h in data set [4] (simulated gastric fluid (SGF), simulated gastric fluid, thermodynamic from solid, equilibrium 4 hr) was 73.6 µg/mL (≈ 241 µM).
`CC(C)c1nc2cc(O)ccc2c(=O)n1-c1ccc(C#N)cc1` [Form AL, 4-(7-hydroxy-4-oxo-2-propan-2-ylquinazolin-3-yl) benzonitrile]: in data set [4], the “Solubility compared with Form B” value is reported as “better solubility than Form B”. The “Solubility in SGF” value was 77.4 µg/mL (≈ 253 µM) in data set [4] (equilibrium 1 hr), 78.8 µg/mL (≈ 258 µM) in data set [4] (equilibrium 2 hr) and 79.5 µg/mL (≈ 260 µM) in data set [4] (equilibrium 4 hr). The “Crystal habit (PLM)” value in data set [5] is “regular particles”. Also, in data set [5], the Powder flow property result is reported as “relatively good property on powder flow”.
For the compound `CC(C)c1nc2cc(O)ccc2c(=O)n1-c1ccc(C#N)cc1` [Form Z, 4-(7-hydroxy-4-oxo-2-propan-2-ylquinazolin-3-yl) benzonitrile], the “Hygroscopicity compared with Form B” value in data set [1] was “relatively lower hygroscopicity than Form B”. In addition, the “Water uptake at 80% RH” value in data set [1] was 0.0303. For the same compound, the Hygroscopicity result in data set [1] was “Non-hygroscopic (increase in mass is less than 0.2 percent)”. For the same compound, the “Solubility compared with Form B” value in data set [2] and in data set [4] was “better solubility than Form B” in each case. In addition, the “Solubility in FaSSIF” value in data set [2] (equilibrium 1 hr) was 31.4 µg/mL (≈ 103 µM); in data set [2] (equilibrium 2 hr), 42.7 µg/mL (≈ 140 µM). The compound further displayed a solubility at 4 h in data set [2] (fasted-state simulated intestinal fluid (FaSSIF), thermodynamic from solid, equilibrium 4 hr) of 56.1 µg/mL (≈ 184 µM). Moreover, the figures for the “Solubility in SGF” value in data set [4] (equilibrium 1 hr), in data set [4] (equilibrium 2 hr) and in data set [4] (equilibrium 4 hr) were 79.6 µg/mL (≈ 261 µM), 90.7 µg/mL (≈ 297 µM) and 86.7 µg/mL (≈ 284 µM), respectively. The “Crystal habit (PLM)” value in data set [5] is “regular particles”. Besides, the Powder flow property result in data set [5] was “relatively good property on powder flow”.
For the compound `CC(C)c1nc2cc(O)ccc2c(=O)n1-c1ccc(C#N)cc1` [Form D, 4-(7-hydroxy-4-oxo-2-propan-2-ylquinazolin-3-yl) benzonitrile], the “Solubility compared with Form B” value in data set [2] and in data set [4] was “better solubility than Form B” throughout. Further, the “Solubility in FaSSIF” value in data set [2] (equilibrium 2 hr) is 88.3 µg/mL (≈ 289 µM); in data set [2] (equilibrium 4 hr), 87.1 µg/mL (≈ 285 µM). Also, the “Uniformity of particle size distribution compared with Form B” value in data set [3] is given as “more uniform particle size distribution than Form B”. Further, in data set [3], the D10 is on record as 53.9 μm. In addition, the D50 in data set [3] was 117.2 μm. In addition, the D90 in data set [3] amounted to 175.9 μm. Besides, the MV in data set [3] came to 116.2 μm. The “Solubility in SGF” value in data set [4] (equilibrium 1 hr) is 98.7 µg/mL (≈ 323 µM); in data set [4] (equilibrium 2 hr), 95.4 µg/mL (≈ 312 µM); in data set [4] (equilibrium 4 hr), 103.3 µg/mL (≈ 338 µM).
